Measured values taken from patent publication US20210300940A1 (Merck Patent GmbH, priority 2018, published 2021).

Columns and labels:
[1] = biological target: T1, TLR7 (Homo sapiens, UniProt Q9NYK1); assay: HEK/293 TLR7 Cell Assay; assay type: cell-based; conditions: TLR7/NFKb HEK cells, R848 agonist 10 uM final concentration, Steady-Glo readout; read-out: TLR7 potency
T1 construct: expressed in transfected cells; host or cells: HEK/293 cells carrying TLR7 and an NF-kB luciferase reporter
T1 sequence (Q9NYK1 27-1049): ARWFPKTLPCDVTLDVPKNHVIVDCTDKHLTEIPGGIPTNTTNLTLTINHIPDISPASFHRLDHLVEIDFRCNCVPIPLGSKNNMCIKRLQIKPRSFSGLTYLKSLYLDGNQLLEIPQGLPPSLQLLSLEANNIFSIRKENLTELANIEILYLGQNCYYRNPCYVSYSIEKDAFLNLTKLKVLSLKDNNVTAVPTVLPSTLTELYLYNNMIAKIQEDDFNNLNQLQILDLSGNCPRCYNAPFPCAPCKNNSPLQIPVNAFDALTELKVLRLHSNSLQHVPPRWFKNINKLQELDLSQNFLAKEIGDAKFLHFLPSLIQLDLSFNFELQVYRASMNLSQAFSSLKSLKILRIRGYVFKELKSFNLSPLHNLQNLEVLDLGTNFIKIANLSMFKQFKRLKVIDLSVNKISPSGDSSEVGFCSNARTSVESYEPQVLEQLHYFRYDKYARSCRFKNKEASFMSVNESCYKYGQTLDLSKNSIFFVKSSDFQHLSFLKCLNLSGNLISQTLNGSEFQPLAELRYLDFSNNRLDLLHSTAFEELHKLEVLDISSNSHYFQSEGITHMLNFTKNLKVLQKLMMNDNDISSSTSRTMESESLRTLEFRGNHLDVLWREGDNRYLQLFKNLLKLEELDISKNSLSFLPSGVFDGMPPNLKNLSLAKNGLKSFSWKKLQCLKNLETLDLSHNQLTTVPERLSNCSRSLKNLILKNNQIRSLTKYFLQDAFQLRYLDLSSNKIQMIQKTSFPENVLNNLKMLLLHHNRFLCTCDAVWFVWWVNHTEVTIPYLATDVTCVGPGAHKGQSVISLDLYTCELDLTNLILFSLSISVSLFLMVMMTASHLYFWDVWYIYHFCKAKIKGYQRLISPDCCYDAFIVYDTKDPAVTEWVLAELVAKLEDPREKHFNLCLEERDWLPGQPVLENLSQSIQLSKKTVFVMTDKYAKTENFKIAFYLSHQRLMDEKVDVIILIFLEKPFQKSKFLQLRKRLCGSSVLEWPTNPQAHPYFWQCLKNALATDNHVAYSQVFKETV
Procedure, shortened: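 Compounds added to HEK cells expressing TLR7 with an NFκB reporter 30 min ahead of 10 uM R848 challenge; luciferase signal (Steady-Glo) measured after 5 h, cells having been seeded 24 h earlier at 5000 per well.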

[2] = biological target: T2, TLR8 (Homo sapiens, UniProt Q9NR97); assay: HEK/293 TLR8 Cell Assay; assay type: cell-based; conditions: HEK cells, R848 agonist 30 uM final concentration, Steady-Glo readout; read-out: TLR8 potency
T2 construct: expressed in transfected cells; host or cells: HEK/293 reporter cells (NF-kB luciferase)
T2 sequence (Q9NR97 27-1041): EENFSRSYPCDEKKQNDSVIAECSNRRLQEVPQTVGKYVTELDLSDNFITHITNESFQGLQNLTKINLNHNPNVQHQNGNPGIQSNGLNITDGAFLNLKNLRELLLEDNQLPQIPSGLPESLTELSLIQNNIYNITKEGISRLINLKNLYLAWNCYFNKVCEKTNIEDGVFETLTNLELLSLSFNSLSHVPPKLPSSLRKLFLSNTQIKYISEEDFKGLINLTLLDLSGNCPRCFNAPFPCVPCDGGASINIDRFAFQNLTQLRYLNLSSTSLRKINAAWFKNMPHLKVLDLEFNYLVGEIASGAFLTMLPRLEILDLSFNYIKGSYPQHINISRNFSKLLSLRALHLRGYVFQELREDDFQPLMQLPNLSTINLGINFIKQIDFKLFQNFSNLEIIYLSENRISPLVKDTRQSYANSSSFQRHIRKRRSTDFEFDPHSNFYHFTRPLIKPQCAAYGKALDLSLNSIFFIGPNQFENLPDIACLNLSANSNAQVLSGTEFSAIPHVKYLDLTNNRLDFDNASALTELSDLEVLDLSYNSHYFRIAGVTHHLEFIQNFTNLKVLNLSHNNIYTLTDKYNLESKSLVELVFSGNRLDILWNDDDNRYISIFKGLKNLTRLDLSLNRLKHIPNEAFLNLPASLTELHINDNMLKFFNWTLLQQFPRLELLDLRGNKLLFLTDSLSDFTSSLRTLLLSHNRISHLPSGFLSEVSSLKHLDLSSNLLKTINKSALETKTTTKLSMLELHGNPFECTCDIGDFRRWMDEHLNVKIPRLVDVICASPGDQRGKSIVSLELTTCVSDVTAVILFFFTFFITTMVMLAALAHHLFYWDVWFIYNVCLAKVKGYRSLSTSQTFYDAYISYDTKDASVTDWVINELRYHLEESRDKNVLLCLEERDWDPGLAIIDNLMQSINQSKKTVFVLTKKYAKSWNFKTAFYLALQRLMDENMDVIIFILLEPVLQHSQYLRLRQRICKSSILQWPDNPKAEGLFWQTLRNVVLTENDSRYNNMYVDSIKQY

With `C[C@@H]1CN(c2cnc(C#N)c3ncccc23)C[C@H](CN2CCS(=O)(=O)CC2)O1` [Example 376, 5-[(2S,6R)-2-(1,1-Dioxo-1lambda6-thiomorpholin-4-ylmethyl)-6-methyl-morpholin-4-yl]-[1,7]naphthyridine-8-carbonitrile] the IC50 [1] was greater than 150 nM and the IC50 [2] was greater than 150 nM.

For `C[C@H]1C[C@@H](NC(=O)[C@H]2CCCN2)CN(c2ccc(C#N)c3nccnc23)C1` [Example 174, (R)-Pyrrolidine-2-carboxylic acid [(3R,5S)-1-(8-cyano-quinoxalin-5-yl)-5-methyl-piperidin-3-yl]-amide], the IC50 [1] was greater than 150 nM and the IC50 [2] was 75 to 150 nM.

`C[C@@H]1CN(c2ccc(C#N)c3nccnc23)C[C@H](CNC(=O)[C@@H](C)O)O1` (single isomer, unassigned) [Example 340] gave an IC50 [1] greater than 150 nM and an IC50 [2] of less than 75 nM.

For `Cc1c(F)cc(N2C[C@H](NC(=O)[C@@H]3CCCN3)C[C@H](C(F)(F)F)C2)c2cccnc12` [Example 115, (2S)—N-[(3R,5S)-1-(7-fluoro-8-methylquinolin-5-yl)-5-(trifluoromethyl)piperidin-3-yl]pyrrolidine-2-carboxamide], the IC50 [1] was greater than 150 nM and the IC50 [2] was less than 75 nM.

`C[C@H]1C[C@@H](NC(=O)CCC2CCN(C)CC2)CN(c2cnc(C#N)c3nccnc23)C1` [Example 189, N-[(3R,5S)-1-(5-Cyano-pyrido[3,4-b]pyrazin-8-yl)-5-methyl-piperidin-3-yl]-3-(1-methyl-piperidin-4-yl)-propionamide] showed an IC50 [1] of 75 to 150 nM and an IC50 [2] of less than 75 nM.

Work on `C[C@H]1C[C@@H](NC(=O)[C@@H](N)[C@@H](C)O)CN(c2ccc(C(F)(F)F)c3ncccc23)C1` [Example 169, (2S,3R)-2-Amino-3-hydroxy-N-[(3R,5S)-5-methyl-1-(8-trifluoromethyl-quinolin-5-yl)-piperidin-3-yl]-butyramide] yielded an IC50 [1] of less than 75 nM and an IC50 [2] of less than 75 nM.

Molecule `C[C@H]1C[C@@H](NS(=O)(=O)NC(=O)CN2CCOCC2)CN(c2ccc(C(F)(F)F)c3ncccc23)C1` [Example 203, N-{[(3R,5S)-5-methyl-1-[8-(trifluoromethyl)quinolin-5-yl]piperidin-3-yl]sulfamoyl}-2-(morpholin-4-yl)acetamide] has an IC50 [1] of 75 to 150 nM and an IC50 [2] of less than 75 nM.

Molecule `C[C@H]1C[C@@H](NC(=O)[C@@](C)(N)CO)CN(c2ccc(C(F)(F)F)c3ncccc23)C1` [Example 178, (S)-2-Amino-3-hydroxy-2-methyl-N-[(3R,5S)-5-methyl-1-(8-trifluoromethyl-quinolin-5-yl)-piperidin-3-yl]-propionamide] has an IC50 [1] greater than 150 nM and an IC50 [2] of less than 75 nM.

Molecule `C[C@@H]1CN(c2ccc(C#N)c3nccnc23)C[C@H](C(=O)NCCC2CS(=O)(=O)C2)O1` [Example 259, (2R,6R)-4-(8-cyanoquinoxalin-5-yl)-N-[2-(1,1-dioxo-1λ^6-thietan-3-yl)ethyl]-6-methylmorpholine-2-carboxamide] has an IC50 [1] of less than 75 nM and an IC50 [2] greater than 150 nM.

With `CN1CC[C@@](F)(CNC(=O)[C@H]2CN(c3ccc(C#N)c4nccnc34)C[C@@H](C(F)(F)F)O2)C1` (single isomer, unassigned) [Example 355] the IC50 [1] was less than 75 nM and the IC50 [2] was less than 75 nM.

For `N#Cc1ccc(N2C[C@H](NCCCS(N)(=O)=O)C[C@H](C(F)(F)F)C2)c2cccnc12` [Example 38, 3-[(3R,5S)-1-(8-Cyano-quinolin-5-yl)-5-trifluoromethyl-piperidin-3-ylamino]-propane-1-sulfonic acid amide], the IC50 [1] was greater than 150 nM and the IC50 [2] was 75 to 150 nM.

`C[C@@H]1CN(c2cnc(C#N)c3ncccc23)C[C@H](CN2CCN(C)CC2)O1` [Example 368, 5-[(2R,6S)-2-Methyl-6-(4-methyl-piperazin-1-ylmethyl)-morpholin-4-yl]-naphthyridine-8-carbonitrile] gave an IC50 [1] of less than 75 nM and an IC50 [2] of less than 75 nM.

Work on `N#Cc1ccc(N2C[C@H](NC(=O)[C@@]3(F)CCNC3)C[C@H](C(F)(F)F)C2)c2cccnc12` (single isomer, unassigned) [Example 164] yielded an IC50 [1] of 75 to 150 nM and an IC50 [2] of 75 to 150 nM.

Work on `CCS(=O)(=O)NCCN[C@@H]1C[C@H](C)CN(c2ccc(C#N)c3nccnc23)C1` [Example 46, Ethane sulfonic acid {2-[(3R,5S)-1-(8-cyano-quinoxalin-5-yl)-5-methyl-piperidin-3-ylamino]-ethyl}-amide] yielded an IC50 [1] of 75 to 150 nM and an IC50 [2] of less than 75 nM.

`CN1CCC(F)(CNC(=O)[C@@H]2CN(c3ccc(C#N)c4ncccc34)C[C@H](C(F)(F)F)O2)CC1` (single isomer, unassigned) [Example 354] gave an IC50 [1] of 75 to 150 nM and an IC50 [2] greater than 150 nM.

`C[C@H]1C[C@@H](NC(=O)[C@H](N)CO)CN(c2ccc(C(F)(F)F)c3ncccc23)C1` [Example 167] was tested, and the IC50 [1] was less than 75 nM and the IC50 [2] was less than 75 nM.

In the case of `Cc1ccc(N2C[C@@H](C)C[C@@H](NC(=O)CC3CCN(C(C)C)CC3)C2)c2cccnc12` [Example 108, 2-(1-Isopropyl-piperidin-4-yl)-N-[(3R,5S)-5-methyl-1-(8-methyl-quinolin-5-yl)-piperidin-3-yl]-acetamide], the IC50 [1] is reported as less than 75 nM and the IC50 [2] is reported as less than 75 nM.

Work on `Cc1c(F)cc(N2C[C@@H](C)C[C@@H](NC(=O)CC3(O)CCN(C)CC3)C2)c2cccnc12` [Example 69, N-[(3R,5S)-1-(7-fluoro-8-methylquinolin-5-yl)-5-methylpiperidin-3-yl]-2-(4-hydroxy-1-methylpiperidin-4-yl)acetamide] yielded an IC50 [1] of less than 75 nM and an IC50 [2] of less than 75 nM.

Molecule `C[C@@H]1CN(c2ccc(C#N)c3nccnc23)C[C@H](CN2CCC(F)(F)C2)O1` [Example 215, 8-[(2S,6R)-2-(3,3-Difluoro-pyrrolidin-1-ylmethyl)-6-methyl-morpholin-4-yl]-quinoxaline-5-carbonitrile] has an IC50 [1] of 75 to 150 nM and an IC50 [2] greater than 150 nM.

Molecule `C[C@@H]1CN(c2ccc(C#N)c3nccnc23)C[C@H](C(=O)NC[C@@H](O)CN(C)C)O1` (single isomer, unassigned) [Example 262] has an IC50 [1] of less than 75 nM and an IC50 [2] of less than 75 nM.

With `C[C@@H]1CN(c2ccc(C#N)c3ncncc23)C[C@H](CNC(=O)C2(F)CCNC2)O1` (stereo partly drawn) [Example 343, N-{[(2S,6R)-4-(8-cyanoquinazolin-5-yl)-6-methylmorpholin-2-yl]methyl}-3-fluoropyrrolidine-3-carboxamide] the IC50 [1] was less than 75 nM and the IC50 [2] was less than 75 nM.

In the case of `C[C@@H]1CN(c2cnc(C#N)c3ncccc23)C[C@H](CNCC2(F)CCOCC2)O1` [Example 377, 5-((2S,6R)-2-{[(4-Fluoro-tetrahydro-pyran-4-ylmethyl)-amino]-methyl}-6-methyl-morpholin-4-yl)-[1,7]naphthyridine-8-carbonitrile], the IC50 [1] is reported as greater than 150 nM and the IC50 [2] is reported as greater than 150 nM.
